Results published in patent US11717508B2, “Compounds, compositions, and methods for inhibiting bacterial growth” (priority 2016, dated 2023).

Tested on: DosRST regulon
Assay type: cell-based
[1] = Rv0569, WT Mtb treated with HC102A compared to DMSO
[2] = Rv0570 nrdZ, WT Mtb treated with HC102A compared to DMSO
[3] = Rv0571c, WT Mtb treated with HC102A compared to DMSO
[4] = Rv0572c, WT Mtb treated with HC102A compared to DMSO
[5] = Rv0573c, WT Mtb treated with HC102A compared to DMSO
[6] = Rv0574c, WT Mtb treated with HC102A compared to DMSO
[7] = Rv1733c, WT Mtb treated with HC102A compared to DMSO
[8] = Rv1735c, WT Mtb treated with HC102A compared to DMSO
[9] = Rv1736c narX, WT Mtb treated with HC102A compared to DMSO
[10] = Rv1737c narK2, WT Mtb treated with HC102A compared to DMSO
[11] = Rv1738, WT Mtb treated with HC102A compared to DMSO
[12] = Rv1790 PPE, WT Mtb treated with HC102A compared to DMSO
[13] = Rv1812c, WT Mtb treated with HC102A compared to DMSO
[14] = Rv1813c, WT Mtb treated with HC102A compared to DMSO
[15] = Rv1834, WT Mtb treated with HC102A compared to DMSO
[16] = Rv1996, WT Mtb treated with HC102A compared to DMSO
[17] = Rv1997 ctpF, WT Mtb treated with HC102A compared to DMSO
[18] = Rv2003c, WT Mtb treated with HC102A compared to DMSO
[19] = Rv2004c, WT Mtb treated with HC102A compared to DMSO
[20] = Rv2005c, WT Mtb treated with HC102A compared to DMSO
[21] = Rv2006 otsB, WT Mtb treated with HC102A compared to DMSO
[22] = Rv2007c fdxA, WT Mtb treated with HC102A compared to DMSO
[23] = Rv2027c, WT Mtb treated with HC102A compared to DMSO
[24] = Rv2028c, WT Mtb treated with HC102A compared to DMSO
[25] = Rv2030c, WT Mtb treated with HC102A compared to DMSO
[26] = Rv2032, WT Mtb treated with HC102A compared to DMSO
[27] = Rv2623, WT Mtb treated with HC102A compared to DMSO
[28] = Rv2624c, WT Mtb treated with HC102A compared to DMSO

C[C@@H]1CC(C)(C)C[C@]2(C1)NC(=O)NC2=O (racemic) [HC102A, 7,7,9-trimethyl-1,3-diazaspiro[4.5]decane-2,4-dione]
genes downregulated by compound (total) (40 μM, 6 days, >2-fold, p<0.05): 55 genes
downregulation of tgs1 gene (transcriptional profiling) (CDC1551, 40 μM, 6 days): ~20 fold
Fold change, gene MT0595 [1]: 0.1089
log2 Fold change, gene MT0595 [1]: −3.199
Counts per million (CPM) WT_HC102A1, gene MT0595 (Rv0569, WT Mtb treated with HC102A, replicate 1): 21.38 CPM
Counts per million (CPM) WT_HC102A2, gene MT0595 (Rv0569, WT Mtb treated with HC102A, replicate 2): 25.92 CPM
Fold change, gene MT0596 [2]: 0.04533
log2 Fold change, gene MT0596 [2]: −4.464
Counts per million (CPM) WT_HC102A1, gene MT0596 (Rv0570 nrdZ, WT Mtb treated with HC102A, replicate 1): 102.7 CPM
Counts per million (CPM) WT_HC102A2, gene MT0596 (Rv0570 nrdZ, WT Mtb treated with HC102A, replicate 2): 94.1 CPM
Fold change, gene MT0597 [3]: 0.2805
log2 Fold change, gene MT0597 [3]: −1.834
Counts per million (CPM) WT_HC102A1, gene MT0597 (Rv0571c, WT Mtb treated with HC102A, replicate 1): 94.1998 CPM
Counts per million (CPM) WT_HC102A2, gene MT0597 (Rv0571c, WT Mtb treated with HC102A, replicate 2): 81.32 CPM
Fold change, gene MT0599 [4]: 0.2441
log2 Fold change, gene MT0599 [4]: −2.034
Counts per million (CPM) WT_HC102A1, gene MT0599 (Rv0572c, WT Mtb treated with HC102A, replicate 1): 127.4 CPM
Counts per million (CPM) WT_HC102A2, gene MT0599 (Rv0572c, WT Mtb treated with HC102A, replicate 2): 180.6 CPM
Fold change, gene MT0601 [5]: 0.1932
log2 Fold change, gene MT0601 [5]: −2.372
Counts per million (CPM) WT_HC102A1, gene MT0601 (Rv0573c, WT Mtb treated with HC102A, replicate 1): 13.82 CPM
Counts per million (CPM) WT_HC102A2, gene MT0601 (Rv0573c, WT Mtb treated with HC102A, replicate 2): 19.29 CPM
Fold change, gene MT0602 [6]: 0.1416
log2 Fold change, gene MT0602 [6]: −2.82
Counts per million (CPM) WT_HC102A1, gene MT0602 (Rv0574c, WT Mtb treated with HC102A, replicate 1): 45.11 CPM
Counts per million (CPM) WT_HC102A2, gene MT0602 (Rv0574c, WT Mtb treated with HC102A, replicate 2): 51.54 CPM
Fold change, gene MT1774 [7]: 0.07551
log2 Fold change, gene MT1774 [7]: −3.727
Counts per million (CPM) WT_HC102A1, gene MT1774 (Rv1733c, WT Mtb treated with HC102A, replicate 1): 109.6 CPM
Counts per million (CPM) WT_HC102A2, gene MT1774 (Rv1733c, WT Mtb treated with HC102A, replicate 2): 116 CPM
Fold change, gene MT1776 [8]: 0.2742
log2 Fold change, gene MT1776 [8]: −1.867
Counts per million (CPM) WT_HC102A1, gene MT1776 (Rv1735c, WT Mtb treated with HC102A, replicate 1): 5.202 CPM
Counts per million (CPM) WT_HC102A2, gene MT1776 (Rv1735c, WT Mtb treated with HC102A, replicate 2): 4.163 CPM
Fold change, gene MT1778 [9]: 0.05545
log2 Fold change, gene MT1778 [9]: −4.173
Counts per million (CPM) WT_HC102A1, gene MT1778 (Rv1736c narX, WT Mtb treated with HC102A, replicate 1): 234.5 CPM
Counts per million (CPM) WT_HC102A2, gene MT1778 (Rv1736c narX, WT Mtb treated with HC102A, replicate 2): 246.1 CPM
Fold change, gene MT1779 [10]: 0.04997
log2 Fold change, gene MT1779 [10]: −4.323
Counts per million (CPM) WT_HC102A1, gene MT1779 (Rv1737c narK2, WT Mtb treated with HC102A, replicate 1): 72.42 CPM
Counts per million (CPM) WT_HC102A2, gene MT1779 (Rv1737c narK2, WT Mtb treated with HC102A, replicate 2): 91.94 CPM
Fold change, gene MT1780 [11]: 0.1174
log2 Fold change, gene MT1780 [11]: −3.091
Counts per million (CPM) WT_HC102A1, gene MT1780 (Rv1738, WT Mtb treated with HC102A, replicate 1): 337.8 CPM
Counts per million (CPM) WT_HC102A2, gene MT1780 (Rv1738, WT Mtb treated with HC102A, replicate 2): 628.9 CPM
Fold change, gene MT1839 [12]: 0.466
log2 Fold change, gene MT1839 [12]: −1.102
Counts per million (CPM) WT_HC102A1, gene MT1839 (Rv1790 PPE, WT Mtb treated with HC102A, replicate 1): 29.83 CPM
Counts per million (CPM) WT_HC102A2, gene MT1839 (Rv1790 PPE, WT Mtb treated with HC102A, replicate 2): 18.94 CPM
Fold change, gene MT1860 [13]: 0.3171
log2 Fold change, gene MT1860 [13]: −1.657
Counts per million (CPM) WT_HC102A1, gene MT1860 (Rv1812c, WT Mtb treated with HC102A, replicate 1): 54.94 CPM
Counts per million (CPM) WT_HC102A2, gene MT1860 (Rv1812c, WT Mtb treated with HC102A, replicate 2): 65.84 CPM
Fold change, gene MT1861 [14]: 0.06232
log2 Fold change, gene MT1861 [14]: −4.004
Counts per million (CPM) WT_HC102A1, gene MT1861 (Rv1813c, WT Mtb treated with HC102A, replicate 1): 121.3 CPM
Counts per million (CPM) WT_HC102A2, gene MT1861 (Rv1813c, WT Mtb treated with HC102A, replicate 2): 147.2 CPM
Fold change, gene MT1882 [15]: 0.4723
log2 Fold change, gene MT1882 [15]: −1.082
Counts per million (CPM) WT_HC102A1, gene MT1882 (Rv1834, WT Mtb treated with HC102A, replicate 1): 37.79 CPM
Counts per million (CPM) WT_HC102A2, gene MT1882 (Rv1834, WT Mtb treated with HC102A, replicate 2): 31.49 CPM
Fold change, gene MT2052 [16]: 0.01797
log2 Fold change, gene MT2052 [16]: −5.798
Counts per million (CPM) WT_HC102A1, gene MT2052 (Rv1996, WT Mtb treated with HC102A, replicate 1): 561.6 CPM
Counts per million (CPM) WT_HC102A2, gene MT2052 (Rv1996, WT Mtb treated with HC102A, replicate 2): 277.3 CPM
Fold change, gene MT2053 [17]: 0.04882
log2 Fold change, gene MT2053 [17]: −4.356
Counts per million (CPM) WT_HC102A1, gene MT2053 (Rv1997 ctpF, WT Mtb treated with HC102A, replicate 1): 105.1 CPM
Counts per million (CPM) WT_HC102A2, gene MT2053 (Rv1997 ctpF, WT Mtb treated with HC102A, replicate 2): 117.4 CPM
Fold change, gene MT2059 [18]: 0.2227
log2 Fold change, gene MT2059 [18]: −2.167
Counts per million (CPM) WT_HC102A1, gene MT2059 (Rv2003c, WT Mtb treated with HC102A, replicate 1): 203.6 CPM
Counts per million (CPM) WT_HC102A2, gene MT2059 (Rv2003c, WT Mtb treated with HC102A, replicate 2): 97.15 CPM
Fold change, gene MT2060 [19]: 0.2044
log2 Fold change, gene MT2060 [19]: −2.291
Counts per million (CPM) WT_HC102A1, gene MT2060 (Rv2004c, WT Mtb treated with HC102A, replicate 1): 661.2 CPM
Counts per million (CPM) WT_HC102A2, gene MT2060 (Rv2004c, WT Mtb treated with HC102A, replicate 2): 393.9 CPM
Fold change, gene MT2061 [20]: 0.1302
log2 Fold change, gene MT2061 [20]: −2.942
Counts per million (CPM) WT_HC102A1, gene MT2061 (Rv2005c, WT Mtb treated with HC102A, replicate 1): 308.4 CPM
Counts per million (CPM) WT_HC102A2, gene MT2061 (Rv2005c, WT Mtb treated with HC102A, replicate 2): 262.8 CPM
Fold change, gene MT2062 [21]: 0.2411
log2 Fold change, gene MT2062 [21]: −2.052
Counts per million (CPM) WT_HC102A1, gene MT2062 (Rv2006 otsB, WT Mtb treated with HC102A, replicate 1): 140.8 CPM
Counts per million (CPM) WT_HC102A2, gene MT2062 (Rv2006 otsB, WT Mtb treated with HC102A, replicate 2): 181.1 CPM
Fold change, gene MT2063 [22]: 0.2221
log2 Fold change, gene MT2063 [22]: −2.171
Counts per million (CPM) WT_HC102A1, gene MT2063 (Rv2007c fdxA, WT Mtb treated with HC102A, replicate 1): 1,505.73 CPM
Counts per million (CPM) WT_HC102A2, gene MT2063 (Rv2007c fdxA, WT Mtb treated with HC102A, replicate 2): 2,151.57 CPM
Fold change, gene MT2086 [23]: 0.3538
log2 Fold change, gene MT2086 [23]: −1.499
Counts per million (CPM) WT_HC102A1, gene MT2086 (Rv2027c, WT Mtb treated with HC102A, replicate 1): 90.79 CPM
Counts per million (CPM) WT_HC102A2, gene MT2086 (Rv2027c, WT Mtb treated with HC102A, replicate 2): 84.31 CPM
Fold change, gene MT2087 [24]: 0.08322
log2 Fold change, gene MT2087 [24]: −3.587
Counts per million (CPM) WT_HC102A1, gene MT2087 (Rv2028c, WT Mtb treated with HC102A, replicate 1): 62.1 CPM
Counts per million (CPM) WT_HC102A2, gene MT2087 (Rv2028c, WT Mtb treated with HC102A, replicate 2): 56.17 CPM
Fold change, gene MT2089 [25]: 0.06954
log2 Fold change, gene MT2089 [25]: −3.846
Counts per million (CPM) WT_HC102A1, gene MT2089 (Rv2030c, WT Mtb treated with HC102A, replicate 1): 1,125.52 CPM
Counts per million (CPM) WT_HC102A2, gene MT2089 (Rv2030c, WT Mtb treated with HC102A, replicate 2): 784.7 CPM
Fold change, gene MT2091 [26]: 0.06482
log2 Fold change, gene MT2091 [26]: −3.947
Counts per million (CPM) WT_HC102A1, gene MT2091 (Rv2032, WT Mtb treated with HC102A, replicate 1): 270.6 CPM
Counts per million (CPM) WT_HC102A2, gene MT2091 (Rv2032, WT Mtb treated with HC102A, replicate 2): 336.8 CPM
Fold change, gene MT2698 [27]: 0.02424
log2 Fold change, gene MT2698 [27]: −5.366
Counts per million (CPM) WT_HC102A1, gene MT2698 (Rv2623, WT Mtb treated with HC102A, replicate 1): 903.6 CPM
Counts per million (CPM) WT_HC102A2, gene MT2698 (Rv2623, WT Mtb treated with HC102A, replicate 2): 611.4 CPM
Fold change, gene MT2699 [28]: 0.052
log2 Fold change, gene MT2699 [28]: −4.265
Counts per million (CPM) WT_HC102A1, gene MT2699 (Rv2624c, WT Mtb treated with HC102A, replicate 1): 106.2 CPM
Counts per million (CPM) WT_HC102A2, gene MT2699 (Rv2624c, WT Mtb treated with HC102A, replicate 2): 108.4 CPM
Fold change, gene MT2700 (Rv2625c, WT Mtb treated with HC102A compared to DMSO): 0.02819
